“Also recorded” adds a separate entry of the source.
Tests used:
human nasal epithelium = experiment: Nasal transepithelial voltage (Vt) in human volunteers; assay type: in vivo
Procedure: Human studies. The Vt across the nasal epithelium was measured in 6 volunteers using previously described methods (Zabner et al., 1996). The protocol followed was identical to that described above for the rabbit studies. […] The catheter was then left in that position for the entire recording period. The solutions were administered through the second lumen in the following order: 1) Normal saline for 5 min; 2) Sterile water with 10 mM EGTA or 10 mM EDTA for 10 min; 3) Nommal saline with 10 mM EGTA or 10 mM EDTA for 5 min; and 4) Normal saline with 10 mM, EGTA or 10 mM EDTA plus […] amiloride for 5 min. Measurements of Vt were read by two investigators who were blinded and wvere checked by a third investigator if there was a discrepancy of more than 2 mV. Disruption of epithelial junctions was assessed by detecting a fall in nasal Vt after perfusion with the chelator, and by the loss of amiloride-sensitive Vt after perfusion with the. chelator solution.

[1] = tested on: rabbit tracheal epithelium; experiment: Retroviral or adenoviral gene transfer to rabbit tracheal epithelium after EGTA pretreatment; assay type: in vivo; settings: retroviral (MuLV, KGF pretreated) or adenoviral vector, three days
Procedure: Gene transfer to the rabbit tracheal epithelium In Vito. Adult New Zealand white rabbits were anesthetized with 32 mg/kg ketamnine, 5.1 mg/kg xylazine and 0.8 mg/kg acepromazine intramuscularly. Using sterile technique, a ventral midline incision was made, exposing the trachea for tracheotomy. A ˜1.5 cm tracheal segment cephalad to the tracheotomy was isolated, and cannulated on each end with PE 330 tubing (Clay Adams, Becton Dickinson). The tracheal segment was first rinsed and then filled with a solution of 12 mM EGTA in water for 45 min. The EGTA solution was removed, and as replaced with 300 μl of retrovirus (titer 3×10^9 cfu/ml) or adenovirus (titer 1×10^10 pfu/ml) vector. In control animals, saline was substituted for water and EGTA treatment. Animals that received the MuLV retrovirus were pretreated with keratinocyte growth factor (KGF) prior to gene transfer to stimulate epithelial proliferation (˜5 mg/kg intravenously and 600 μg via nasal instillation for 3 doses given 36, 24 and 12 hr preceding the procedure) (Wang et al., 1998; Wang et al., 1999). The vector solution was left in place for an additional 45 min. and then the cannulae were removed, the incisions closed, and animals were allowed to recover. Three days later, animals were sacrificed, and the tissues studied for β-galactosidase expression.

## O=C(O)CN(CCOCCOCCN(CC(=O)O)CC(=O)O)CC(=O)O [EGTA]
Human nasal epithelium; 10 mM EGTA, volunteers
  adverse effects of nasal perfusion: did not experience any adverse effects
Human nasal epithelium; H2O/chelator then chelator in saline, 10 mM
  nasal Vt: there was a significant decrease in the Vt
Human nasal epithelium; n=6
  amiloride-sensitive nasal Vt after EGTA treatment: EGTA treatment abolished the amiloride-sensitive Vt; also recorded: essentially no amiloride-sensitive Vt remained
[1]
  gene transfer to tracheal epithelium after pretreatment with 12 mM EGTA in water: transduced cells throughout the tracheal epithelium
